Measurements reported in article PMC6968712, “SPA: a peptide antagonist that acts as a cell-penetrating peptide for drug delivery” (Drug Delivery, 2019).
Where a SMILES comes first, the peptide text is derived from it. Where no end group is shown, it is not given here. [ ]: non-standard residue; d: D form.

Tests used:
[1] = RP-HPLC retention time as measure of peptide hydrophobicity; format: physicochemical; conditions: Table S1; chromatographic, C18 (Waters XBridge, 4.6*250 mm), linear gradient 5–95% acetonitrile in 0.1% trifluoroacetic acid within 30 min, 1 mL/min
Description: Purity analysis was checked by analytical RP-HPLC (Waters), and the peptides were eluted using a liner gradient of 5–95% acetonitrile in 0.1% trifluoroacetic acid at a flow rate of 1 mL/min within 30 min on a C18 column (Waters XBridge Columns, 10 μM, 4.6*250 mm). The retention time of each peptide was determined when the peak was at its maximum height.

CHO cells [2] = assay: Flow cytometry assay of cellular uptake; format: cell-based; conditions: 1 h
Description: CHO cells were treated with 10 μM FITC labeled peptides for 1 h, and then the cells were harvested and finally resuspended in PBS after washing twice with PBS. The fluorescence of cells was analyzed on a FACS Caliber. To explore the uptake mechanism of SPA, CHO cells were preincubated at 4 °C and then treated with 10 μM FITC-labeled SPA at 4 °C or 37 °C for 1 h. In experiments with chloroquine, CHO cells were incubated with FITC-labeled SPA and 100 μM chloroquine at 37 °C for 1 h. In experiments with endocytosis inhibitor, cells were pretreated with 10 μg/mL chlorpromazine, 50 μM amiloride or 5 mM methyl-β-cyclodextrin at 37 °C for 0.5 h and then treated with 10 μM FITC-labeled SPA for 1 h. Cells were harvested and analyzed by a FACS Caliber (BD).

Erythrocytes = assay: Hemolysis assay; format: cell-based; conditions: mice erythrocytes, even at 200 μM, 1 h, 37 °C
Description: Erythrocytes were obtained from freshly collected mice blood and resuspended in PBS to 4% (V/V). After 100 μL the erythrocyte suspension being seeded in 96-well plate, the cells were incubated with 100 μL peptides solution at different concentrations for 1 h at 37 °C. The plates were centrifuged at 1000 g for 10 min and the released hemoglobin was determined using microplate reader (Thermo scientific) at 450 nm. PBS and 0.1% Triton X-100 were used as agents for 0 and 100% hemolysis, respectively.

trypsin = assay: Enzymatic stability toward trypsin; format: in vitro ADME; conditions: 15 μL 10 mM peptide in 285 μL trypsin solution (10 μg/mL), 37 °C, after incubation for 360 min as printed, RP-HPLC, triplicate
Description: The enzymatic stability of SPA toward trypsin and mice serum was determined following a procedure reported in our previous study (Song et al., [2013]). A portion of 15 μL peptide stock solution (10 mM) was added to 285 μL trypsin solution (10 μg/mL) or 100% serum. […] A portion of 40 μL aliquots were diluted with 80 μL water/acetonitrile (60:40 v/v) containing 1% TFA and analyzed by RP-HPLC (Waters). The peptides were eluted using a liner gradient of 5–95% acetonitrile in 0.1% trifluoroacetic acid at a flow rate of 1 mL/min within 30 min on a C18 column (Waters XBridge Columns, 10 μM, 4.6*250 mm). The remaining full-length peptide concentration was normalized with respect to the initial concentration.

[3] = Enzymatic stability in serum; format: in vitro ADME; conditions: 15 μL 10 mM peptide in 285 μL 100% mice serum, 37 °C, 0–3 h, RP-HPLC, triplicate
Description: The enzymatic stability of SPA toward trypsin and mice serum was determined following a procedure reported in our previous study (Song et al., [2013]). A portion of 15 μL peptide stock solution (10 mM) was added to 285 μL trypsin solution (10 μg/mL) or 100% serum. Incubations were carried out at 37 °C for 0, 0.5, 1, 2 and 3 h in triplicate. A portion of 40 μL aliquots were diluted with 80 μL water/acetonitrile (60:40 v/v) containing 1% TFA and analyzed by RP-HPLC (Waters). The peptides were eluted using a liner gradient of 5–95% acetonitrile in 0.1% trifluoroacetic acid at a flow rate of 1 mL/min within 30 min on a C18 column (Waters XBridge Columns, 10 μM, 4.6*250 mm). The remaining full-length peptide concentration was normalized with respect to the initial concentration.

CHO cells [4] = assay: LDH leakage assay; format: cell-based; conditions: 1 h, 100% = 0.2% Triton X-100
Description: The LDH leakage was measured using the Cytotoxicity Detection Kit (Roche). CHO cells were seeded at 1 × 10^4 cells/well in 96-well plate 24 h before treatment. After treatment with SPA at various concentrations for 1 h, 40 μL medium was transferred to a 96-well plate and incubated for 15 min with 40 μL reaction mixture, followed by 20 μL stop solution. […] was measured using microplate reader (Thermo scientific) at 490 nm. Untreated cells were defined as no leakage and 100% leakage was defined as total LDH release by lysing cells in 0.2% Triton X-100.

CHO cells [5] = assay: MTT cytotoxicity assay of SPA (24 h); format: cell-based; conditions: various concentrations
Description: Cells were treated with SPA at various concentrations for 24 h. The cytotoxicity of SPA was determined by MTT assay. The absorbance was determined using microplate reader (Thermo scientific) at 570 nm.

CHO cells [6] = assay: MTT antiproliferative assay of SPA-CPT conjugate; format: cell-based; conditions: treated 1 h, washed, cultured 72 h
Description: CHO, MDA-MB-231and U251 cells were seeded at 5 × 10^3 cells/well in 96-well plates 24 h before treatment, respectively. […] After washing with medium to remove the remaining agents, the cells were cultured for 72 h and the antiproliferative effects of the relevant agents were determined by the MTT assay.

Compound: FITC-AHX-rPKPwQwFwLL-NH2 [FITC-SPA, SPA labeled with FITC at the N-terminus via an aminohexanoic acid spacer]
- retention time [1]: 21.2 min
- mean fluorescence on cotreatment with chloroquine (CHO cells [2]; 10 μM FITC-labeled SPA with 100 μM chloroquine, 37 °C): significantly increased

Compound: FITC-AHX-YGRKKRRQRRR-NH2 [FITC-TAT, FITC-labeled cell-penetrating peptide TAT used as uptake comparator, reference compound]
- retention time [1]: 16.0 min
- cellular uptake efficiency (mean fluorescence intensity) (CHO cells [2]; 10 μM FITC labeled peptides, flow cytometry): cellular uptake efficiency of SPA was lower than that of TAT

Compound: CC(C)C[C@H](NC(=O)[C@H](CC(C)C)NC(=O)[C@@H](Cc1c[nH]c2ccccc12)NC(=O)[C@H](Cc1ccccc1)NC(=O)[C@@H](Cc1c[nH]c2ccccc12)NC(=O)[C@H](CCC(N)=O)NC(=O)[C@@H](Cc1c[nH]c2ccccc12)NC(=O)[C@@H]1CCCN1C(=O)[C@H](CCCCN)NC(=O)[C@@H]1CCCN1C(=O)[C@H](N)CCCN=C(N)N)C(N)=O [SPA, [D-Arg^1, D-Trp^5,7,9, Leu^11]Substance P] (H-[dR]PKP[dW]Q[dW]F[dW]LL-NH2)
- hemolytic activity (Erythrocytes): low hemolytic activity
- stability against trypsin (remaining full-length peptide) (trypsin): not hydrolyzed
- stability in serum (remaining full-length peptide) [3]: significantly greater stability in serum than L-SPA
- LDH leakage (CHO cells [4]; 160 μM): 35%
- cytotoxicity (MTT) (CHO cells [5]): low cytotoxicity
- cytotoxicity / antiproliferative effect (MTT) (CHO cells [6]): no notable cytotoxicity

Compound: RPKPWQWFWLL-NH2 [L-SPA]
- stability against trypsin (remaining full-length peptide) (trypsin): almost completely degraded
- stability in serum (remaining full-length peptide) [3]: SPA exhibited significantly greater stability in serum than L-SPA

Compound: CC[C@H](C)[C@H](NC(=O)CN)C(=O)NCC(=O)N[C@@H](C)C(=O)N[C@H](C(=O)N[C@@H](CC(C)C)C(=O)N[C@@H](CCCCN)C(=O)N[C@H](C(=O)N[C@@H](CC(C)C)C(=O)N[C@H](C(=O)N[C@H](C(=O)NCC(=O)N[C@@H](CC(C)C)C(=O)N1CCC[C@H]1C(=O)N[C@@H](C)C(=O)N[C@@H](CC(C)C)C(=O)N[C@H](C(=O)N[C@@H](CO)C(=O)N[C@@H](Cc1c[nH]c2ccccc12)C(=O)N[C@H](C(=O)N[C@@H](CCCCN)C(=O)N[C@@H](CCCNC(=N)N)C(=O)N[C@@H](CCCCN)C(=O)N[C@@H](CCCNC(=N)N)C(=O)N[C@@H](CCC(N)=O)C(=O)N[C@@H](CCC(N)=O)C(N)=O)[C@@H](C)CC)[C@@H](C)CC)[C@@H](C)O)[C@@H](C)O)C(C)C)C(C)C [melittin, reference compound]
- LDH leakage (CHO cells [4]; 50 μM (positive control)): ~100%
